In article doi:10.1101/2023.11.24.568596v1 (biorxiv, 2023):

Columns and labels:
Details in all cases: binder
AKT3 = AKT3 (Homo sapiens, UniProt Q9Y243)
BRD4 = BRD4 (Homo sapiens, UniProt O60885)
CaMKK2 = CaMKK2 (Homo sapiens, UniProt Q96RR4)
DRAK1 = biological target: T1, DRAK1 (Homo sapiens, UniProt Q9UEE5)
T1 sequence (Q9UEE5 1-414): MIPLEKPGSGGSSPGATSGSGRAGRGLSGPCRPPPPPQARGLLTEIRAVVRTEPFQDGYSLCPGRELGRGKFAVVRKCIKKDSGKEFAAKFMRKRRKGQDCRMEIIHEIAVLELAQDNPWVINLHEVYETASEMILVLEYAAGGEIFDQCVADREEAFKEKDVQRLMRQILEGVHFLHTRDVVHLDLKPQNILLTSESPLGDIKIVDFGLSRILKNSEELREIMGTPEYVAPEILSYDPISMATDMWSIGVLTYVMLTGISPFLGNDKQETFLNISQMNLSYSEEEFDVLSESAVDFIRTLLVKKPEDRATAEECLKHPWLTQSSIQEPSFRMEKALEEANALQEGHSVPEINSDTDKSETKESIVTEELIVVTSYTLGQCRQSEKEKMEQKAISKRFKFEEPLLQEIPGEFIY

DRAK2 = biological target: T2, DRAK2 (Homo sapiens, UniProt O94768)
T2 sequence (O94768 1-372): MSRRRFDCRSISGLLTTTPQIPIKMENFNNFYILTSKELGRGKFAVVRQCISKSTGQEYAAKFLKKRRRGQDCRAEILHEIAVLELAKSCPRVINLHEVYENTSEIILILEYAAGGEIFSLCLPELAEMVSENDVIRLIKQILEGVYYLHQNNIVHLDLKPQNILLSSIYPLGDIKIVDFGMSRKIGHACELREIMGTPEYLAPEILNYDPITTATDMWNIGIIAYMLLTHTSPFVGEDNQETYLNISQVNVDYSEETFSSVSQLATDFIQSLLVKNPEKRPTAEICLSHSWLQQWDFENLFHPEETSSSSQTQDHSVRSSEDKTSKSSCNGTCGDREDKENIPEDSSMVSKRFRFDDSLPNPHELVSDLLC

DYRK1A = DYRK1A (Homo sapiens, UniProt Q13627)
EphA2 = EphA2 (Homo sapiens, UniProt P29317)
Erk2 = Erk2 (Homo sapiens, UniProt P28482)
LOK = LOK (Homo sapiens, UniProt O94804)
NDR2 = NDR2 (Homo sapiens, UniProt Q9Y2H1)
p38a = p38a (Homo sapiens, UniProt Q16539)
Chain of p38a (Q16539 whole entry): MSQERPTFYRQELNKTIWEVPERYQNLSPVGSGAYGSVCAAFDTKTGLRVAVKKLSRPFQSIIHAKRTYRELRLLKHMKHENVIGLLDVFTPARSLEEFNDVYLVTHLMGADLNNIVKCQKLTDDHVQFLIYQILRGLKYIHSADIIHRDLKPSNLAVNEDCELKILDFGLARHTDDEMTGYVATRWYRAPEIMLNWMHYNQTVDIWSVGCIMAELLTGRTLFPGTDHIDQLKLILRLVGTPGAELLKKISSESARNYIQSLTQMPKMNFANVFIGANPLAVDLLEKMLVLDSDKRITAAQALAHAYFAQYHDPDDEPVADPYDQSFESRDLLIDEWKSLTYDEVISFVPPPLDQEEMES

Chain of EphA2 (P29317 whole entry): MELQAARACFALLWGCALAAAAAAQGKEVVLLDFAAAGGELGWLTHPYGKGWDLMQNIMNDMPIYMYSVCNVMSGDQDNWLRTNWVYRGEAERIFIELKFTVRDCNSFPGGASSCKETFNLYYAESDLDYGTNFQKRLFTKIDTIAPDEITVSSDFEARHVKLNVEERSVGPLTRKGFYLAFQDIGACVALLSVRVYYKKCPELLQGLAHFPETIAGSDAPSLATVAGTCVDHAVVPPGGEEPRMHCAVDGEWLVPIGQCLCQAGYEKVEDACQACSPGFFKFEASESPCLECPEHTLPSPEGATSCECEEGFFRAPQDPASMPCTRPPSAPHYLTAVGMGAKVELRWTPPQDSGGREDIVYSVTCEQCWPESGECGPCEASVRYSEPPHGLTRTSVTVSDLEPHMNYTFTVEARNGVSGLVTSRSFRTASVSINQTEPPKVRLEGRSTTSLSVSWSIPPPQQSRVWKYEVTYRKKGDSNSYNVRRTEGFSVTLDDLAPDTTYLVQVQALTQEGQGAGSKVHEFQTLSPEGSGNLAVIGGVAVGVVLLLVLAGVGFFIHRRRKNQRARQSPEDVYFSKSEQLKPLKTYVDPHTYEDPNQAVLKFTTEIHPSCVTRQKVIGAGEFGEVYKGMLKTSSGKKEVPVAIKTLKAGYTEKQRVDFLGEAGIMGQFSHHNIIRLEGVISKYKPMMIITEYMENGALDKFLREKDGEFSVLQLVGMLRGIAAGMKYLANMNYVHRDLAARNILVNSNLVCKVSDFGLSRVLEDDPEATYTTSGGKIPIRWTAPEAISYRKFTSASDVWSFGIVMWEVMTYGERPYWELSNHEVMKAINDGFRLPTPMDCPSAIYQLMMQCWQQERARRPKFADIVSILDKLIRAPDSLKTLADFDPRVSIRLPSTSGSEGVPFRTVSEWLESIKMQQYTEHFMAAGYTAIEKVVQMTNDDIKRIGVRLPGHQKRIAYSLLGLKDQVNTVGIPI
Chain of LOK (O94804 whole entry): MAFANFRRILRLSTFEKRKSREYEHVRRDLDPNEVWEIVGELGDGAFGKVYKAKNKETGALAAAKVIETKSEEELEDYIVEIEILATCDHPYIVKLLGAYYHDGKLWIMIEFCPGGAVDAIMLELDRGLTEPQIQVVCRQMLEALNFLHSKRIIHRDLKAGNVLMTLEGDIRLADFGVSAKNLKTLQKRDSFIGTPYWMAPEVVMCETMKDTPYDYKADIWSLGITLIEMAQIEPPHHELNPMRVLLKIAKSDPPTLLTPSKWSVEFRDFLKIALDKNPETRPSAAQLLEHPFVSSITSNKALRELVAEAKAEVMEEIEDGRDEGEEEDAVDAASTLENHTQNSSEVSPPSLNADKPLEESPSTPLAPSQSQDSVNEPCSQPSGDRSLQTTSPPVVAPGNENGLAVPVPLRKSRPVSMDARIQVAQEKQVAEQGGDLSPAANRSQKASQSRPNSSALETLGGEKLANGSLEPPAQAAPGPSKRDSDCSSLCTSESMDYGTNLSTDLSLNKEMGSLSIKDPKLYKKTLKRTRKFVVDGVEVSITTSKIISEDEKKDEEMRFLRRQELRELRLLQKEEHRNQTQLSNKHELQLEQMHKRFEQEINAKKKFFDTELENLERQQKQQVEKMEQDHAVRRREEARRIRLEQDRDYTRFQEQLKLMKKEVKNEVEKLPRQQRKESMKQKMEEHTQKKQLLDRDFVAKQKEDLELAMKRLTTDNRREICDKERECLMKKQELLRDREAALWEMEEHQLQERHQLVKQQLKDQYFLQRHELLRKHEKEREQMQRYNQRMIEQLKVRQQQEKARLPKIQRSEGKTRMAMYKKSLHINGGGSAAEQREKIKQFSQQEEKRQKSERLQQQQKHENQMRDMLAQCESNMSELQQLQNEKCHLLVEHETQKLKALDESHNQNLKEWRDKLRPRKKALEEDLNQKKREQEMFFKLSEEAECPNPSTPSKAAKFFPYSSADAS
Chain of CaMKK2 (Q96RR4 whole entry): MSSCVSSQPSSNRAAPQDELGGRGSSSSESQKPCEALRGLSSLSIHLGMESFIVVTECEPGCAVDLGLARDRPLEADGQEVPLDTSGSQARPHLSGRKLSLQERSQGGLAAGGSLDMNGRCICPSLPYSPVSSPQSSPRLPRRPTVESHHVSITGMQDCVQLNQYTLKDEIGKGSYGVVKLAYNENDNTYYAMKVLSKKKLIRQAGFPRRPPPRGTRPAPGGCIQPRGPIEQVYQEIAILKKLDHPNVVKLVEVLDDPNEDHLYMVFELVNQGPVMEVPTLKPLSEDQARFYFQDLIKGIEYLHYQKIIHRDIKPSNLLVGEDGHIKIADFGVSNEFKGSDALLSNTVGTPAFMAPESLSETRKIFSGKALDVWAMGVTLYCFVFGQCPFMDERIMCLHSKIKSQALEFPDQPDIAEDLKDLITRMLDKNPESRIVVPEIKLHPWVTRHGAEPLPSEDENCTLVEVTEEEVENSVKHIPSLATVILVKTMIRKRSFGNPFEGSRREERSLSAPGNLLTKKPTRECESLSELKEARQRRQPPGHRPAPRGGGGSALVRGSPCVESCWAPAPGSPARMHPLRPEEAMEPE
Chain of NDR2 (Q9Y2H1 whole entry): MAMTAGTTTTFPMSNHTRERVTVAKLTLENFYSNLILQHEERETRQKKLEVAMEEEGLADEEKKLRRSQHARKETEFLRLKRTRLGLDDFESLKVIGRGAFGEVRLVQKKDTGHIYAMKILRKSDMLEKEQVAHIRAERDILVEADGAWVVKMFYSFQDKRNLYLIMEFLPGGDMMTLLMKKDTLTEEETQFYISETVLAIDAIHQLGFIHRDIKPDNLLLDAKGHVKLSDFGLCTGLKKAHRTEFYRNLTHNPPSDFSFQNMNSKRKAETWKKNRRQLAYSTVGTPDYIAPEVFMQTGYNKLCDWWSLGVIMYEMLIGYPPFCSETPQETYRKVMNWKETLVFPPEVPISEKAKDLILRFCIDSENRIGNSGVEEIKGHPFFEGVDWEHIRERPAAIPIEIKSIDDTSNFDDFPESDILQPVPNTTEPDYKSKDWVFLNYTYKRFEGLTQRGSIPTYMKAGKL
Chain of AKT3 (Q9Y243 whole entry): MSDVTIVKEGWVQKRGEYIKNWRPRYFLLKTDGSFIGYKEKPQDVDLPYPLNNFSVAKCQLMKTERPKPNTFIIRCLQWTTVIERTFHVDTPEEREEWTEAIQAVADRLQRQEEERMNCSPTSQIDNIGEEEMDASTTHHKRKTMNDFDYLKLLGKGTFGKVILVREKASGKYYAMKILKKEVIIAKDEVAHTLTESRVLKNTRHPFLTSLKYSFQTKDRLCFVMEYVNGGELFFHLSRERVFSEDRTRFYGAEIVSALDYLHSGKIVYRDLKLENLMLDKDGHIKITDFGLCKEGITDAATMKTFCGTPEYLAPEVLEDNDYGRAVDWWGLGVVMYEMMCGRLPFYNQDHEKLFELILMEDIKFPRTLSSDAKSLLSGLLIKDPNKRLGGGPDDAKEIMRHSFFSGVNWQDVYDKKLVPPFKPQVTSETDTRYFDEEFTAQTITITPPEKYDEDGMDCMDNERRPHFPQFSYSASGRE
Chain of Erk2 (P28482 whole entry): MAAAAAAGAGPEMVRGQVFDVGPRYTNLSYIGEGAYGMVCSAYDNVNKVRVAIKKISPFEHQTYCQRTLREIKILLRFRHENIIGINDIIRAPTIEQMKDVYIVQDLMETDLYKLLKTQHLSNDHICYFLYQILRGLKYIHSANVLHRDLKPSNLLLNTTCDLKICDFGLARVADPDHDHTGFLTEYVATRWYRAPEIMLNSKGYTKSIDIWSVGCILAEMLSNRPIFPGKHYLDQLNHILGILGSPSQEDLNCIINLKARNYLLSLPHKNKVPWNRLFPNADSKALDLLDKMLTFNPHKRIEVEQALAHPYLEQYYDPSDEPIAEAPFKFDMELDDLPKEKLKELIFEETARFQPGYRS

CNc1ncc2cc(-c3ccc(-c4cccc(C)n4)cc3Cl)c(=O)n(CCCCN)c2n1 [compound 20, MRLW5]
ΔTm MRLW5 (20) (AKT3): 2.3 °C
ΔTm MRLW5 (20) (BRD4): -0.7 °C
ΔTm MRLW5 (20) (CaMKK2): 1.4 °C
ΔTm MRLW5 (20) (DRAK1): -0.5 °C
ΔTm MRLW5 (20) (DRAK2): 0.7 °C
ΔTm MRLW5 (20) (DYRK1A): -1.0 °C
ΔTm MRLW5 (20) (EphA2): 3.5 °C
ΔTm MRLW5 (20) (Erk2): 1.3 °C
ΔTm MRLW5 (20) (LOK): 12.5 °C
ΔTm MRLW5 (20) (NDR2): 4.6 °C
ΔTm MRLW5 (20) (p38a): 1.0 °C

CNc1ncc2cc(-c3ccc(-c4cccc(C)n4)cc3Cl)c(=O)n(CCC3CCNCC3)c2n1 [compound 22, 6-(2-Chloro-4-(6-methylpyridin-2-yl)phenyl)-2-(methylamino)-8-(2-(piperidin-4-yl)ethyl)pyrido[2,3-d]pyrimidin-7(8H)-one]
ΔTm 22 (AKT3): 4.6 °C
ΔTm 22 (BRD4): 0.0 °C
ΔTm 22 (CaMKK2): 2.3 °C
ΔTm 22 (DRAK1): -1.3 °C
ΔTm 22 (DRAK2): 2.7 °C
ΔTm 22 (DYRK1A): 0.5 °C
ΔTm 22 (EphA2): 2.3 °C
ΔTm 22 (Erk2): 2.8 °C
ΔTm 22 (LOK): 11.4 °C
ΔTm 22 (NDR2): 5.1 °C
ΔTm 22 (p38a): 0.7 °C

CNc1ncc2cc(-c3ccc(-c4cccc(C)n4)cc3Cl)c(=O)n(C[C@H]3CC[C@H](N)CC3)c2n1 [compound 23, 23]
ΔTm 23 (AKT3): 3.7 °C
ΔTm 23 (BRD4): -1.1 °C
ΔTm 23 (CaMKK2): 4.9 °C
ΔTm 23 (DRAK1): -1.0 °C
ΔTm 23 (DRAK2): 1.7 °C
ΔTm 23 (DYRK1A): -0.3 °C
ΔTm 23 (EphA2): 3.2 °C
ΔTm 23 (Erk2): 2.7 °C
ΔTm 23 (LOK): 13.0 °C
ΔTm 23 (NDR2): 3.5 °C
ΔTm 23 (p38a): 6.7 °C

Cc1cccc(-c2ccc(-c3cc4cnc(NC(CO)CO)nc4n(CCCCN)c3=O)c(Cl)c2)n1 [compound 24, 8-(4-Aminobutyl)-6-(2-chloro-4-(6-methylpyridin-2-yl)phenyl)-2-((1,3-dihydroxypropan-2-yl)amino)pyrido[2,3-d]pyrimidin-7(8H)-one]
ΔTm MR24 (24) (AKT3): 1.0 °C
ΔTm MR24 (24) (BRD4): -1.7 °C
ΔTm MR24 (24) (CaMKK2): 0.2 °C
ΔTm MR24 (24) (DRAK1): 0.0 °C
ΔTm MR24 (24) (DRAK2): 2.9 °C
ΔTm MR24 (24) (DYRK1A): 0.1 °C
ΔTm MR24 (24) (EphA2): 0.6 °C
ΔTm MR24 (24) (Erk2): -0.9 °C
ΔTm MR24 (24) (LOK): -0.6 °C
ΔTm MR24 (24) (NDR2): 2.6 °C
ΔTm MR24 (24) (p38a): 2.8 °C

Cc1cccc(-c2ccc(-c3cc4cnc(NCCCc5ccc(N)cc5)nc4n(CCCCN)c3=O)c(Cl)c2)n1 [compound 25, 8-(4-Aminobutyl)-2-((3-(4-aminophenyl)propyl)amino)-6-(2-chloro-4-(6-methylpyridin-2-yl)phenyl)pyrido[2,3-d]pyrimidin-7(8H)-one]
ΔTm 25 (AKT3): 2.0 °C
ΔTm 25 (BRD4): -2.9 °C
ΔTm 25 (CaMKK2): 3.3 °C
ΔTm 25 (DRAK1): 0.9 °C
ΔTm 25 (DRAK2): 7.5 °C
ΔTm 25 (DYRK1A): -0.1 °C
ΔTm 25 (EphA2): 3.3 °C
ΔTm 25 (Erk2): 3.1 °C
ΔTm 25 (LOK): -0.7 °C
ΔTm 25 (NDR2): 6.7 °C
ΔTm 25 (p38a): 6.1 °C

Cc1cccc(-c2ccc(-c3cc4cnc(NCCCN5CCOCC5)nc4n(CCCCN)c3=O)c(Cl)c2)n1 [compound 26, MR26]
ΔTm MR26 (26) (AKT3): 0.8 °C
ΔTm MR26 (26) (BRD4): -1.2 °C
ΔTm MR26 (26) (CaMKK2): 1.5 °C
ΔTm MR26 (26) (DRAK1): 0.2 °C
ΔTm MR26 (26) (DRAK2): 5.1 °C
ΔTm MR26 (26) (DYRK1A): -0.3 °C
ΔTm MR26 (26) (EphA2): 4.2 °C
ΔTm MR26 (26) (Erk2): 0.2 °C
ΔTm MR26 (26) (LOK): -0.4 °C
ΔTm MR26 (26) (NDR2): 5.2 °C
ΔTm MR26 (26) (p38a): 4.0 °C
